What all share (assay): NCI-60 cell line screen, 48 h
Experiment [1] concerns SK-MEL-2.
In experiment [2] the test system is MDA-MB-435.
Experiment [3] has as its system MCF7.
The test system of experiment [4] is PC-3.
Experiment [5] deals with OVCAR-8.
In experiment [6] the test system is NCI-H522.
Experiment [7] relates to NCI-H23.
For experiment [8], the system named is NCI/ADR-RES.
Experiment [9] has as its system ACHN.
The subject of experiment [10] is SR.
The subject of experiment [11] is SNB-75.
The subject of experiment [12] is KM12.
Experiment [13] concerns RXF 393.
Experiment [14] concerns SK-OV-3.
The test system of experiment [15] is 786-0.
In experiment [16] the test system is BT-549.
The subject of experiment [17] is SW-620.
The subject of experiment [18] is HCC 2998.
Experiment [19] has as its system M14.

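Where inhibition never reached the appropriate level, the endpoint shown equals the highest concentration tested. Otherwise, values were interpolated linearly from a five-concentration, 48-hour dose response in 96-well plates. GI50 is the concentration that inhibits growth by half.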 Active and inactive are the calls of the source. Rule as the data show it: active = GI50 up to about 1.1 µM and inactive = higher.

In the case of `N#Cc1cc2c(cc1Cl)Sc1nnc(Nc3ccccc3)n1S2(=O)=O`, the GI50 in [1] is 2.55 µM (inactive); in experiment [2], 2.08 µM (inactive); in experiment [3], 8.39 µM (inactive); in experiment [4] it was 1.74 µM (inactive); in experiment [5], 2 µM (inactive); in [6], 1.89 µM (inactive). The GI50 is 1.62 µM (inactive) in [7]; 1.78 µM (inactive) in experiment [8]; 1.74 µM (inactive) in [9]; 0.15 µM (active) in experiment [10]; 3.4 µM (inactive) in experiment [11]; 2.06 µM (inactive) in experiment [12]. Further, the GI50 in experiment [13] is 1.73 µM (inactive); in experiment [14], 5.04 µM (inactive); in experiment [15], 2.32 µM (inactive); in experiment [16] it was 2.47 µM (inactive); in experiment [17] it was 1.52 µM (inactive); in [18] it was 1.55 µM (inactive). Besides, in experiment [19], the GI50 was 2.17 µM (inactive).

With `OC(C1CCC=NN1C(O)(C(F)(F)F)C(F)(F)F)(C(F)(F)F)C(F)(F)F` (stereo not drawn), the GI50 in experiment [1], in [2], in experiment [3], in experiment [4], in experiment [5] and in experiment [6] was > 10 µM (inactive) each time. Also, the GI50 in experiment [7], in experiment [8], in experiment [9], in [10], in experiment [11] and in experiment [12] was > 10 µM (inactive) in each case. The GI50 in [13], in [14], in experiment [15], in experiment [16], in experiment [18] and in [19] was > 10 µM (inactive) throughout.

In the case of `COc1cc(C2c3cc(O)c(OC)cc3C3OCC2C3CO)ccc1O` (stereo not drawn), the GI50 in [1], in experiment [2], in [3], in experiment [4], in experiment [6] and in experiment [7] was > 100 µM (inactive) in each case. For the same molecule, the GI50 in [8], in experiment [9], in experiment [10], in experiment [11], in [12] and in experiment [13] was > 100 µM (inactive) in each case. Moreover, the GI50 in experiment [14], in experiment [15], in experiment [16], in experiment [17], in experiment [18] and in experiment [19] was > 100 µM (inactive) each time.

With `O=C1OC(c2ccccc2)=NC1c1ccccc1` (stereo not drawn), the GI50 in experiment [2], in [3], in [4], in experiment [5], in [6] and in [7] was > 100 µM (inactive) throughout. Moreover, the GI50 in experiment [8], in experiment [9], in experiment [10], in experiment [11], in experiment [12] and in [13] was > 100 µM (inactive) throughout. Besides, the GI50 in [14], in [15], in [16], in experiment [17], in experiment [18] and in experiment [19] was > 100 µM (inactive) throughout.
